Source: article PMC3898838, “Design, Synthesis, and Biological Evaluation of an Allosteric Inhibitor of HSET that Targets Cancer Cells with Supernumerary Centrosomes” (Chemistry & Biology, 2013)
Blank lines part the entries; values can stand above or below the compound they belong to.

How the values were obtained:
HeLa cells [1] = assay: Time-lapse video microscopy, mitotic duration, arrest and exit; type: cell-based, human; details: 200 μM CW069, 100 μM monastrol
Protocol: HSET is known to antagonize the activity of the related kinesin, KSP, during spindle formation ([Mountain et al., 1999]). Therefore, we used time-lapse video microscopy to investigate whether CW069-treated cells transit mitosis with normal kinetics, and whether the characteristic mitotic arrest induced by inhibition of KSP ([Mayer et al., 1999]) could be suppressed by cotreatment with CW069. To this end, HeLa cells were treated with either DMSO control (0.2%), 200 μM CW069, 100 μM monastrol, or CW069+monastrol for 60 min before being imaged every 5 min for a further 360 min. Mitotic duration (MD) was defined as the period of time between when the cells began to round up and the onset of anaphase. No statistical difference was recorded between control cells and cells treated with 200 μM CW069 (MD 55 ± 7 and 53 ± 6 min, respectively, Figures 6A, 6B, and S7). […] This effect was reversed to a large extent by cotreatment of CW069 with monastrol. […] This is consistent with observations previously reported for KSP-depleted cells ([Mountain et al., 1999]). […] Cells were synchronized in G2-M by incubation at 37°C and 5% CO2 for 24 hr with 9 μM of the CDK1 inhibitor RO-3306 (Merck). Cells were released by removal of the RO-3306 and four washings of 10 min each, at 37°C, with prewarmed culture media + 10% FBS. N1E-115 cells were transfected with siRNA (Supplemental Experimental Procedures) and imaged from 6 hr after transfection. Some RO-3306-synchronized cells were released with 200 μM CW069, 100 μM monastrol, or 0.2% DMSO, and imaging started immediately or 1 hr after treatment. Imaging was carried out for 24 hr, or for 4 hr in the case of the CW069/monastrol cotreatment. Imaging was conducted every 5 min in a humidified chamber with 37°C and 5% CO2, using a Nikon Eclipse TE2000-E microscope, and analyzed with NIS-Elements software (Nikon, Tokyo, Japan). The morphology of cells in mitosis and the mitotic fate (bipolar division, multipolar division, or cell death) were analyzed.

HeLa cells [2] = assay: Immunofluorescence after time-lapse imaging, monopolar/bipolar spindles; type: cell-based, human; details: 200 μM CW069, 100 μM monastrol, 40 mitotic cells
From the text: Immediately after time-lapse imaging, cells were fixed and antibodies against α-tubulin, CDK5RAP2, and DAPI were employed to visualize MTs, centrosomes, and DNA, respectively. […] Control HeLa cells formed mainly bipolar spindles (92%), with two centrosomes positioned at the spindle poles on either side of the metaphase plate (Figure 6C; Table 1). Similar numbers of bipolar spindles were formed in CW069-treated cells (95%; Figure 6C; Table 1). Monastrol-treated cells almost exclusively formed monopolar spindles (97%) with one pole surrounded by DNA ([Luo et al., 2004]; Figure 6C; Table 1). Normal bipolar spindle formation was indeed restored for many cells (45%) when the HSET inhibitor CW069 was administered along with the KSP inhibitor monastrol (Figure 6C; Table 1).
Cells were plated at a seeding density of 1.2 × 10^4 cells per well in Ibidi eight-well chamber slides, incubated for 24 hr, and then treated with compound for 3 hr. Prewarmed 4% paraformaldehyde in PBS was then added to each well to fix the cells before washing with PBS. Permeabilization and blocking was performed by incubating the slides with 1% BSA, 0.3% Triton X-100, 5% goat serum in PBS (PBS/B/0.3%T+5%GS) for 1 hr while shaking them at room temperature (RT). The slides were incubated with primary antibody solutions (mouse monoclonal anti-α-Tubulin [catalog number T9026; Sigma-Aldrich] and rabbit anti-CDK5RAP2 [catalog number A300-554A; Bethyl Laboratories]) at 4°C for 16 hr. The slides were washed four times with PBS/B/0.3%T+5%GS and then incubated with secondary antibody solutions (anti-rabbit IgG Alexa Fluor 488 [catalog number A21206] and anti-mouse IgG Alexa Fluor 647 [catalog number A20990]; Invitrogen) and DAPI (catalog number D3571; Invitrogen) in deionized water (300 nM) in the dark at RT for 1 hr. After four washes with PBS/B/0.3%T+5%GS, the solution was replaced with PBS and the slides were stored at 4°C until imaging was performed. Images were gathered with the use of an ICys Research Imaging Cytometer (CompuCyte) or a tandem confocal microscope (Leica).

[3] = target: T1, full-length, N-terminal, 6His-tagged human HSET (Homo sapiens, UniProt Q9BW19); assay: In vitro enzymatic ATPase assay (ADP-Glo), MT-stimulated activity; type: biochemical; details: for reduction of HSET ATPase function: first-pass enzymatic assay, at 100 μM, n = 3
T1 construct: The protocol was optimized for use with full-length, N-terminal, 6His-tagged HSET and KSP; made in house; host or cells: Sf9 insect cells (baculovirus, pFastBac1)
T1 sequence (Q9BW19 1-673): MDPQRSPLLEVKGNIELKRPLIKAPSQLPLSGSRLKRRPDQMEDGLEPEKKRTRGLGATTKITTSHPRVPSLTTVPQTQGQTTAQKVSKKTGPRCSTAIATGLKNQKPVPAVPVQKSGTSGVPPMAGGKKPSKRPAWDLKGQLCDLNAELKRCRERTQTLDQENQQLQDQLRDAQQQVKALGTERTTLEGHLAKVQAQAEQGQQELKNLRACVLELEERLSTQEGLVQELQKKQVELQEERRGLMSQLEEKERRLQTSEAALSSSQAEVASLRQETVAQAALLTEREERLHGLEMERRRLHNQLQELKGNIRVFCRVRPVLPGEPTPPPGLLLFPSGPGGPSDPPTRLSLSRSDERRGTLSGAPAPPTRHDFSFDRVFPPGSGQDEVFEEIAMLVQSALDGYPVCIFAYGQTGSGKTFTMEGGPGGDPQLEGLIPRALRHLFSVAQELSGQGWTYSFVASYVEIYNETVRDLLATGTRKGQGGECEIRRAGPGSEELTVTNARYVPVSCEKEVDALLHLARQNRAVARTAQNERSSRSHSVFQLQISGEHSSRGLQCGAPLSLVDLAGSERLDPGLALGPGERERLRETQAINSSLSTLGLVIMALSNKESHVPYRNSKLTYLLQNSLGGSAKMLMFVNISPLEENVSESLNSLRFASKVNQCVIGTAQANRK
From the text: (§1) The similarity decreases to 56% in the loop 5 binding cleft alone (residues 422–432; Figure 1A). Given the high degree of similarity between the proteins, and the potential for selective binding in the loop 5 cleft, the chemogenomics principle that similar proteins bind similar ligands was applied to HSET and KSP, and an in silico model for HSET binding was developed based on nearly 500 existing inhibitors of KSP in the ChEMBL database (see Experimental Procedures for details; [Klabunde, 2007]). Using the model parameters, we selected 200 compounds (in silico) from 20 million possibilities and further triaged them into 50 ligands that scored highest in the bioactivity model. We acquired and tested these ligands for in vitro activity using an ADP-Glo enzymatic assay (see Experimental Procedures for details; Figure 1B).
(§2) The protocol was optimized for use with full-length, N-terminal, 6His-tagged HSET and KSP, and measured the MT-stimulated activity of the proteins. Inhibition of the […] of HSET/KSP was observed spectrophotometrically by coupling the hydrolysis of ATP to oxidation of NADH via pyruvate kinase/lactate dehydrogenase reactions. The assay was initiated by […] an assay mixture containing the following components (final concentration): 6 nM protein, 0.07 mg/ml MTs (University Biologicals), […], 2 mM ATP, 2.7 mM MgCI, 1 mM phospho(enol)-pyruvate, 0.2 mM NADH, 50 μg/ml lactate dehydrogenase, 100 μg/ml pyruvate kinase, and various concentrations of inhibitor all in 50 mM Na PIPES (pH 6.8) at 37°C. The ADP-Glo detection assay (Promega) was performed as described in the manufacturer’s instructions. All compound additions were performed using a multidrop BioMek Nxp (Beckman Coulter). Plates were read using a Pherastar microplate reader (BMG Labtech).

[4] = target: T2, full-length, N-terminal, 6His-tagged KSP (Homo sapiens, UniProt P52732); assay: as above; type: biochemical; details: concentrations up to 250 μM, mean ± SD
T2 construct: IC50 values for CW069 and 3 against full-length, N-terminal, 6His-tagged HSET and KSP; made in house
T2 sequence (P52732 1-1056): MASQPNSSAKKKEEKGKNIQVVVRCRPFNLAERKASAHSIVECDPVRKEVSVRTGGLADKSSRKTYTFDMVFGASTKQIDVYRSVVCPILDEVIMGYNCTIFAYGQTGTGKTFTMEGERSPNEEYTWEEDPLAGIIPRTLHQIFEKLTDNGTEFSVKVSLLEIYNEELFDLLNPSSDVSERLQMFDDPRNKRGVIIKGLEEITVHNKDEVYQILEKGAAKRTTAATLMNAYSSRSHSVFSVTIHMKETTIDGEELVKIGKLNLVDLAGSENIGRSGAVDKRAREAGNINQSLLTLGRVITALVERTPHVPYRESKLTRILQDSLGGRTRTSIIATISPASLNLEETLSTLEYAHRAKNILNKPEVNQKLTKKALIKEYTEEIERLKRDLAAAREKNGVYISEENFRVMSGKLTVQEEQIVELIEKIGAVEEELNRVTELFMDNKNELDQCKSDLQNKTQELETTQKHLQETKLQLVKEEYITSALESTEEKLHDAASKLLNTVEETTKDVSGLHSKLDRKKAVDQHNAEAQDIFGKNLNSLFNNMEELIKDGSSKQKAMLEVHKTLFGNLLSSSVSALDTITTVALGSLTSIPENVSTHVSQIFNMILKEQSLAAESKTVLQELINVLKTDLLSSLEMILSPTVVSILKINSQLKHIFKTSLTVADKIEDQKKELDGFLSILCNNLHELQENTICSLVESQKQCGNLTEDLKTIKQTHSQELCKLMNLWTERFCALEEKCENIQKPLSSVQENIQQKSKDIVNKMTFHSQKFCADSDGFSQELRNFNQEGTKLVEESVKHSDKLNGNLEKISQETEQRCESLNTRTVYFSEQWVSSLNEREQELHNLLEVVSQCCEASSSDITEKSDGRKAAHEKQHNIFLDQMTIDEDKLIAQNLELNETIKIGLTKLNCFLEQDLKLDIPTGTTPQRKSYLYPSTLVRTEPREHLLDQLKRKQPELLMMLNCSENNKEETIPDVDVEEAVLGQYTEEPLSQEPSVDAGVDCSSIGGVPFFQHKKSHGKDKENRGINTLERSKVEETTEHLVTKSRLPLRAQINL
From the text: as §1, §2

[5] = >200 cells that entered mitosis >60 min after treatment

Compound: CCOC(=O)C1=C(C)NC(=S)NC1c1cccc(O)c1 (stereo not shown) [monastrol, reference compound]
Mitotic Arrest (%) (HeLa cells [1]; [5]): 93% | Mitotic Exit (%) (HeLa cells [1]; [5]): 7% | Mitotic duration (MD) (HeLa cells [1]; rounding up to anaphase onset, cells transiting mitosis): 179 ± 68 min | Bipolar Spindle (%) (HeLa cells [2]): 3% | Monopolar Spindle (%) (HeLa cells [2]): 97%

reduction of HSET ATPase function [3]: > 60%
Compound: O=C(c1ccc(N2CCCc3ccccc32)s1)n1ccnc1 [compound 1]

IC50 [4]: 29 ± 2 µM | IC50 ([3]; concentrations up to 250 μM, mean ± SD): 30 ± 4 µM | selectivity for HSET over KSP ([3]; from IC50 values, HSET vs KSP): does not possess selectivity for HSET
Compound: O=C(O)c1cc(Cl)c(Cl)cc1C(=O)N(Cc1ccccc1)Cc1ccccc1 [compound 3]

reduction of HSET ATPase function [3]: > 60%
Compound: O=C(O)c1cc(I)ccc1NC1C(=O)OC(c2ccccc2)C1c1ccccc1 (stereo not shown) [compound 2]
